Experimental data as given in patent US11596639B2, “Substituted indole Mcl-1 inhibitors” (Vanderbilt University, priority 2016, dated 2023).
Read-outs that look alike come from different tables or passages of the source.

Assays:
Mcl-1 = Mcl-1 (Homo sapiens (Human), UniProt Q07820); assay: TR-FRET binding assay, FITC-Bak peptide and MBP-tagged Mcl-1; conditions: read-out: Ki for Inhibition of Mcl-1 by TR-FRET assay
Description: Compounds are diluted in DMSO in a 16-point, semilog serial dilution scheme. […] The plate was mixed and incubated for 3 hours at room temperature. […] TR-FRET signal is plotted and IC50 and Ki values are calculated in the same manner as the fluorescence polarization anisotropy based competition assays.

[1] = tested on: H929 human cancer cell lines; assay: Cellular viability / proliferation (Cell TiterGlo, 72 h); assay type: cell-based
Summary of the method: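 H929 cells plated at 1,000/well in 10% FBS medium received a 2-fold serial compound dilution (top 50 μM, DMSO <1%) 24 h later. After 72 h, viability was read by CellTiter-Glo luminescence. IC50 came from a four-parameter fit.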

[2] = Homo sapiens, NCI-H929, 72 h, read-out: GI50 on cellular proliferation of H929 human cancer cell lines, H929 cells, 72 h, Cell TiterGlo, 10% FBS

Chain of Mcl-1 (Q07820 172-327): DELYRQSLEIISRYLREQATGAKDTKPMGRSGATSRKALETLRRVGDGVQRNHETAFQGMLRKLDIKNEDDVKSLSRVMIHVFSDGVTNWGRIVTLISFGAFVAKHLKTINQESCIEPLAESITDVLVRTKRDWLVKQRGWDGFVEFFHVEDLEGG

Row | SMILES | Ki (Mcl-1) | GI50 [1, 2] | GI50 ([1]; read-out: GI50 on cellular proliferation of H929 human cancer cell lines, H929 cells, 72 h, Cell TiterGlo, 10% FBS)
1 | Cc1cc(OCCCc2c3n(c4c(-c5c(C)nn(C)c5C)c(Cl)ccc24)[C@H](C)CN(c2cc(N(C)C)cc4cc(C(=O)O)n(C)c24)C3=O)cc(C)c1Cl [Example 683, (R)-7-(7-chloro-10-(3-(4-chloro-3,5-dimethylphenoxy)propyl)-4-methyl-1-oxo-6-(1,3,5-trimethyl-1H-pyrazol-4-yl)-3,4-dihydropyrazino[1,2-a]indol-2(1H)-yl)-5-(dimethylamino)-1-methyl-1H-indole-2-carboxylic acid] | 0.21 nM | 250 nM | 
2 | COCCOCCn1c(C(=O)O)cc2cc(C)cc(N3C[C@@H](C)n4c(c(CCCOc5cc(C)c(Cl)c(C)c5)c5ccc(Cl)c(-c6c(C)ncnc6C)c54)C3=O)c21 [Example 635, (R)-7-(7-chloro-10-(3-(4-chloro-3,5-dimethylphenoxy)propyl)-6-(4,6-dimethylpyrimidin-5-yl)-4-methyl-1-oxo-3,4-dihydropyrazino[1,2-a]indol-2(1H)-yl)-1-(2-(2-methoxyethoxy)ethyl)-5-methyl-1H-indole-2-carboxylic acid] | < 0.2 nM | < 200 nM | 
3 | Cc1cc(OCCCc2c3n(c4c(-c5c(C)nn(C)c5C)c(Cl)ccc24)[C@H](C)CN(c2cc(OC4CCN(C)CC4)cc4cc(C(=O)O)n(C)c24)C3=O)cc(C)c1Cl [Example 519, (R)-7-(7-chloro-10-(3-(4-chloro-3,5-dimethylphenoxy)propyl)-4-methyl-1-oxo-6-(1,3,5-trimethyl-1H-pyrazol-4-yl)-3,4-dihydropyrazino[1,2-a]indol-2(1H)-yl)-1-methyl-5-((1-methylpiperidin-4-yl)oxy)-1H-indole-2-carboxylic acid] | 0.46 nM | 990 nM | 
4 | Cc1cc(OCCCc2c3n(c4c(-c5c(C)nn(C)c5C)c(Cl)ccc24)[C@H](C)CN(c2cc(N(C)C(=O)[C@H](C)N(C)C)cc4c(C(=O)O)cn(C)c24)C3=O)cc(C)c1Cl [Example 608, 7-((R)-7-chloro-10-(3-(4-chloro-3,5-dimethylphenoxy)propyl)-4-methyl-1-oxo-6-(1,3,5-trimethyl-1H-pyrazol-4-yl)-3,4-dihydropyrazino[1,2-a]indol-2(1H)-yl)-5-((S)-2-(dimethylamino)-N-methylpropanamido)-1-methyl-1H-indole-3-carboxylic acid] | 0.91 nM | 304000 nM | 
5 | Cc1cc(OCCCc2c3n(c4c(-c5c(C)nc(CN6CCN(C)CC6)nc5C)c(Cl)ccc24)[C@H](C)CN(c2cn(C)c4ccc(-c5ncn(C)n5)cc24)C3=O)cc(C)c1Cl [Example 502, (R)-7-chloro-10-(3-(4-chloro-3,5-dimethylphenoxy)propyl)-6-(4,6-dimethyl-2-((4-methylpiperazin-1-yl)methyl)pyrimidin-5-yl)-4-methyl-2-(1-methyl-5-(1-methyl-1H-1,2,4-triazol-3-yl)-1H-indol-3-yl)-3,4-dihydropyrazino[1,2-a]indol-1(2H)-one] | 2.9 nM | < 200 nM | 
6 | Cc1cc(OCCCc2c3n(c4c(-c5c(C)nn(C)c5C)c(Cl)ccc24)[C@H](C)CN(c2cc(C(=O)N4CCN(C)CC4)cc4cc(C(=O)O)n(C)c24)C3=O)cc(C)c1Cl [Example 626, (R)-7-(7-chloro-10-(3-(4-chloro-3,5-dimethylphenoxy)propyl)-4-methyl-1-oxo-6-(1,3,5-trimethyl-1H-pyrazol-4-yl)-3,4-dihydropyrazino[1,2-a]indol-2(1H)-yl)-1-methyl-5-(4-methylpiperazine-1-carbonyl)-1H-indole-2-carboxylic acid] | < 0.2 nM | 4400 nM | 
7 | CC(=O)N1CCN(c2ccnc(Cn3c(C(=O)O)cc4cc(C)cc(N5C[C@@H](C)n6c(c(CCCOc7cc(C)c(Cl)c(C)c7)c7ccc(Cl)c(-c8c(C)nn(C)c8C)c76)C5=O)c43)c2)CC1 [Example 552, (R)-1-((4-(4-acetylpiperazin-1-yl)pyridin-2-yl)methyl)-7-(7-chloro-10-(3-(4-chloro-3,5-dimethylphenoxy)propyl)-4-methyl-1-oxo-6-(1,3,5-trimethyl-1H-pyrazol-4-yl)-3,4-dihydropyrazino[1,2-a]indol-2(1H)-yl)-5-methyl-1H-indole-2-carboxylic acid] | < 0.2 nM | 4600 nM | 
8 | Cc1ccc(Cn2cc(C(=O)O)c3cccc(N4C[C@@H](C)n5c(c(CCCOc6cc(C)c(Cl)c(C)c6)c6ccc(Cl)c(-c7c(C)nn(C)c7C)c65)C4=O)c32)nc1 (single isomer, unassigned) [Example 507] | 0.72 nM |  | 1400 nM
9 | Cc1cc(OCCCc2c3n(c4c(-c5c(C)nn(C)c5C)c(Cl)ccc24)[C@H](C)CN(c2cn(C[C@H]4CCCN4C)c4ccc(C(=O)O)cc24)C3=O)cc(C)c1Cl [Example 694, 3-((R)-7-chloro-10-(3-(4-chloro-3,5-dimethylphenoxy)propyl)-4-methyl-1-oxo-6-(1,3,5-trimethyl-1H-pyrazol-4-yl)-3,4-dihydropyrazino[1,2-a]indol-2(1H)-yl)-1-(((R)-1-methylpyrrolidin-2-yl)methyl)-1H-indole-5-carboxylic acid] | < 0.2 nM | 320 nM | 
10 | Cc1cc(N2C[C@@H](C)n3c(c(CCCOc4cc(C)c(Cl)c(C)c4)c4ccc(Cl)c(-c5c(C)nn(C)c5C)c43)C2=O)c2c(c1)cc(C(=O)O)n2Cc1cccc(N2CCCCC2)n1 [Example 505, (R)-7-(7-Chloro-10-(3-(4-chloro-3,5-dimethylphenoxy)propyl)-4-methyl-1-oxo-6-(1,3,5-trimethyl-1H-pyrazol-4-yl)-3,4-dihydropyrazino[1,2-a]indol-2(1H)-yl)-5-methyl-1-((6-(piperidin-1-yl)pyridin-2-yl)methyl)-1H-indole-2-carboxylic acid] | 1.3 nM | 3200 nM | 
11 | C=C(C)c1ccnc(Cn2c(C(=O)O)cc3cc(C)cc(N4C[C@@H](C)n5c(c(CCCOc6cc(C)c(Cl)c(C)c6)c6ccc(Cl)c(-c7c(C)nn(C)c7C)c65)C4=O)c32)c1 [Example 641, (R)-7-(7-chloro-10-(3-(4-chloro-3,5-dimethylphenoxy)propyl)-4-methyl-1-oxo-6-(1,3,5-trimethyl-1H-pyrazol-4-yl)-3,4-dihydropyrazino[1,2-a]indol-2(1H)-yl)-5-methyl-1-((4-(prop-1-en-2-yl)pyridin-2-yl)methyl)-1H-indole-2-carboxylic acid] | < 0.2 nM | 350 nM | 
12 | Cc1cc(OCCCc2c3n(c4c(-c5c(C)nn(C)c5C)c(Cl)ccc24)[C@H](C)CN(c2cc(CCN4CCOCC4)cc4cc(C(=O)O)n(C)c24)C3=O)cc(C)c1Cl [Example 715, (R)-7-(7-chloro-10-(3-(4-chloro-3,5-dimethylphenoxy)propyl)-4-methyl-1-oxo-6-(1,3,5-trimethyl-1H-pyrazol-4-yl)-3,4-dihydropyrazino[1,2-a]indol-2(1H)-yl)-1-methyl-5-(2-morpholinoethyl)-1H-indole-2-carboxylic acid] | < 0.2 nM | < 200 nM | 
13 | Cc1cc(OCCCc2c3n(c4c(-c5c(C)nn(C)c5C)c(Cl)ccc24)[C@H](C)CN(c2cc(N(C)C(=O)CN4CCN(C)CC4)cc4c(C(=O)O)cn(C)c24)C3=O)cc(C)c1Cl [Example 604, (R)-7-(7-chloro-10-(3-(4-chloro-3,5-dimethylphenoxy)propyl)-4-methyl-1-oxo-6-(1,3,5-trimethyl-1H-pyrazol-4-yl)-3,4-dihydropyrazino[1,2-a]indol-2(1H)-yl)-t-methyl-5-(N-methyl-2-(4-methylpiperazin-1-yl)acetamido)-1H-indole-3-carboxylic acid] | 0.73 nM |  | 
14 | Cc1cc(OCCCc2c3n(c4c(-c5c(C)nn(C)c5C)c(Cl)ccc24)[C@H](C)CN(c2cc(N(C)C(=O)CN(C)C)cc4c(C(=O)O)cn(C)c24)C3=O)cc(C)c1Cl [Example 611, (R)-7-(7-chloro-10-(3-(4-chloro-3,5-dimethylphenoxy)propyl)-4-methyl-1-oxo-6-(1,3,5-trimethyl-1H-pyrazol-4-yl)-3,4-dihydropyrazino[1,2-a]indol-2(1H)-yl)-5-(2-(dimethylamino)-N-methylacetamido)-1-methyl-1H-indole-3-carboxylic acid] | 1.1 nM |  | 
15 | Cc1cc(OCCCc2c3n(c4c(-c5c(C)nn(C)c5C)c(Cl)ccc24)[C@H](C)CN(c2cc(CN4CCC(Oc5ccc(Cl)cc5)CC4)cc4c(C(=O)O)cn(C)c24)C3=O)cc(C)c1Cl [Example 547, (R)-7-(7-chloro-10-(3-(4-chloro-3,5-dimethylphenoxy)propyl)-4-methyl-t-oxo-6-(1,3,5-trimethyl-1H-pyrazol-4-yl)-3,4-dihydropyrazino[1,2-a]indol-2(1H)-yl)-5-((4-(4-chlorophenoxy)piperidin-1-yl)methyl)-1-methyl-1H-indole-3-carboxylic acid] | 10 nM |  | 
16 | COCCOc1cc(N2C[C@@H](C)n3c(c(CCCOc4cc(C)c(Cl)c(C)c4)c4ccc(Cl)c(-c5c(C)nn(C)c5C)c43)C2=O)c2c(c1)cc(C(=O)O)n2C [Example 712, (P, R)-7-(7-chloro-10-(3-(4-chloro-3,5-dimethylphenoxy)propyl)-4-methyl-1-oxo-6-(1,3,5-trimethyl-1H-pyrazol-4-yl)-3,4-dihydropyrazino[1,2-a]indol-2(1H)-yl)-5-(2-methoxyethoxy)-1-methyl-1H-indole-2-carboxylic acid] | < 0.2 nM |  | 
17 | Cc1cc(N2C[C@@H](C)n3c(c(CCCOc4cc(C)c(Cl)c(C)c4)c4ccc(Cl)c(-c5c(C)nn(C)c5C)c43)C2=O)c2c(c1)cc(C(=O)O)n2Cc1ccccn1 [Example 713, (M, R)-7-(7-chloro-10-(3-(4-chloro-3,5-dimethylphenoxy)propyl)-4-methyl-1-oxo-6-(1,3,5-trimethyl-1H-pyrazol-4-yl)-3,4-dihydropyrazino[1,2-a]indol-2(1H)-yl)-5-methyl-1-(pyridin-2-ylmethyl)-1H-indole-2-carboxylic acid] | < 0.2 nM |  | 
